Experimental findings from patent US9981972B2, “N-hydroxy bicyclic hydantoin carbamates as tools for identification of serine hydrolase targets” (ABIDE THERAPEUTICS, INC., priority 2014, dated 2018) are described below.

Molecules are shown by their SMILES. Where two headings read alike, the source gives them in different places.

Broadly, the IC50 is the concentration that gives 50% inhibition.

The target of one test is T1, FAAH (Mus musculus, UniProt O08914).
T1 construct: from tissue; host or cells: mouse brain, membrane fraction
T1 sequence (O08914 1-579): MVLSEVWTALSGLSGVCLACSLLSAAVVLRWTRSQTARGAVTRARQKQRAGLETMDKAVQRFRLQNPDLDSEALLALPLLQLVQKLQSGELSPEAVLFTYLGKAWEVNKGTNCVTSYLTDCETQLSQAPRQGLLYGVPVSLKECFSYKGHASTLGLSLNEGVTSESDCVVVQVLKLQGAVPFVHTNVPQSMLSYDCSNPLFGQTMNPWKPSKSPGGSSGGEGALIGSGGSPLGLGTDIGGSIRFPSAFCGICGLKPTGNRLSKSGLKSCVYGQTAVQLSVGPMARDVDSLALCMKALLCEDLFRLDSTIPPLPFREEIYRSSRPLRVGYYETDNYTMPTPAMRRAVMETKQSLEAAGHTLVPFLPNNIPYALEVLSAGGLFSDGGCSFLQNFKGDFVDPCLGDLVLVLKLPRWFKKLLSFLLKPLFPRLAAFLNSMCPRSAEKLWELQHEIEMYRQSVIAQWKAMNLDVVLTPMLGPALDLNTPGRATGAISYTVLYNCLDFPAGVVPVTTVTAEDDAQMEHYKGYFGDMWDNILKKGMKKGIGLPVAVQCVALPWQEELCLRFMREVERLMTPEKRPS
The experiment in a line: Gel-based competitive ABPP in vitro, mouse brain membrane proteome. The following applies: for FAAH in vitro enzyme activity, % @ 10 μM: mouse brain (mem) proteome. Type of test: biochemical. As to the method: (§1) Assay Overview: The purpose of this assay was to determine whether test compounds can inhibit LYPLA1 and LYPLA2 in a complex proteomic lysate and to assess anti-target inhibition using a competitive activity-based proteomic profiling (ABPP) assay. In this assay, a complex proteome endogenously expressing LYPLA1/2 was incubated with test compound followed by reaction with a rhodamine-conjugated fluorophosphonate (FP-Rh) serine-hydrolase specific activity-based probe. The reaction products were separated by SDS-PAGE and visualized in-gel using a flatbed fluorescence scanner. The percentage activity remaining was determined by measuring the integrated optical density of the bands. […] Percent inhibition was calculated relative to a DMSO (no compound) control.
(§2) Protocol Summary: Mouse brain membrane proteome (50 μL reaction volume, 1 mg/mL in DPBS) was treated with 0.1-100 μM test compound (1 μL of a 50× stock in DMSO) for 30 minutes at 37° C. FP-Rh (1 μL of 50× stock in DMSO, Thermo #88318) was added to a final concentration of 2 μM. The reactions were incubated for 30 minutes at 25° C., quenched with 16 μL 4×SDS-PAGE loading buffer (reducing), separated by SDS-PAGE and visualized by in-gel fluorescent scanning. The percentage activity remaining was determined by measuring the integrated optical density of the bands relative to a DMSO-only (no compound) control. Assay Cutoff: Compounds with ≥50% inhibition of targets at 1 μM test compound concentration were considered active.
(§3) Assay Overview: The purpose of this assay was to determine IC50 values of powder samples of test compounds for enzyme of interest activity, and anti-targets in a complex proteomic lysate using a gel-based competitive ABPP assay. In this assay, a complex proteome was incubated with test compound followed by reaction with FP-Rh and SDS-PAGE analysis as described above.
(§4) Protocol Summary: Soluble HeLa cell proteome (50 μL reaction volume, 1 mg/mL in DPBS) or mouse brain membrane proteome (50 μL reaction volume, 1 mg/mL in DPBS) was treated with varying concentrations of test compound (1 μL of a 50× stock in DMSO) for 30 minutes at 37° C. FP-Rh (1 μL of 50× stock in DMSO) was added to a final concentration of 2 μM. The reaction was incubated for 30 minutes at 25° C., quenched with 16 μL 4×SDS-PAGE loading buffer (reducing), separated by SDS-PAGE and visualized by in-gel fluorescent scanning. The percentage activity remaining was determined by measuring the integrated optical density of the enzymes of interest, and anti-target bands relative to a DMSO-only (no compound) control. IC50 values were determined from dose-response curves from three replicates at each inhibitor concentration: 1, 10, 100, 1000, 10000 nM and 0.01, 0.1, 1, 10, 100, 1000, 10000, 50000, and 100000 nM.

Another test concerns the target T2, ABHD6 (Mus musculus, UniProt Q8R2Y0).
T2 construct: from tissue; host or cells: mouse brain, membrane fraction
T2 sequence (Q8R2Y0 1-336): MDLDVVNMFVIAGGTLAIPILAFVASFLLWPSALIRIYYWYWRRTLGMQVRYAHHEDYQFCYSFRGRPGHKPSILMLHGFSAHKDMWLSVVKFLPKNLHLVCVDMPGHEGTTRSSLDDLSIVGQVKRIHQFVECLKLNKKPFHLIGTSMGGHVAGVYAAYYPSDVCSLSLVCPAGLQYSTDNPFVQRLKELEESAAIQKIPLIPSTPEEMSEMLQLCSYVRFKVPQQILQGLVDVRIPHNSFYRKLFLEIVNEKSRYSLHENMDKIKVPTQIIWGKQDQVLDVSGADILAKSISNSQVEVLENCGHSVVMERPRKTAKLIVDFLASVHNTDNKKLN
Described as above. It counts as biochemical. As to the method: as §1, §2, §3, §4

The mark [1] stands for this setting: mouse ABHD6, in vitro, read-out: mABHD6 in vitro potency (IC50).

For `O=C(ON1C(=O)[C@@H]2CN(C(=O)N3CCOCC3)CCN2C1=O)N1CCN(CCc2ccc(Cl)cc2)CC1` [Compound 41, (S)-7-(morpholine-4-carbonyl)-1,3-dioxo-hexahydroimidazo[1,5-a]pyrazin-2(3H)-yl 4-(4-chlorophenethyl)piperazine-1-carboxylate], on FAAH, the “FAAH in vitro enzyme activity, % @ 10 μM” value is reported as 100% @. Besides, the “ABHD6 in vitro enzyme activity, % @ 1 μM” value on ABHD6 (mouse brain (mem) proteome) was 100% @.
Turning to `O=C(ON1C(=O)[C@@H]2CN(C(=O)N3CCOCC3)CCN2C1=O)N1CCC(CCc2ccc(Cl)cc2)CC1` [Compound 50, (S)-7-(morpholine-4-carbonyl)-1,3-dioxohexahydroimidazo[1,5-a]pyrazin-2(3H)-yl 4-(4-chloro-phenethyl)piperidine-1-carboxylate], the “FAAH in vitro enzyme activity, % @ 10 μM” value at FAAH is on record as 0% @. The “ABHD6 in vitro enzyme activity, % @ 1 μM” value on ABHD6 (mouse brain (mem) proteome) turned out to be 100% @. The IC50 at ABHD6 (setting [1]) amounted to 2.2 nM.
As to `C#CCOc1ccc(N2CCN(C(=O)ON3C(=O)[C@H]4CN(Cc5ccc(Oc6ccccc6)cc5)CCN4C3=O)CC2)cc1` [Compound 45, (R)-1,3-dioxo-7-(4-phenoxybenzyl)-hexahydroimidazo[1,5-a]pyrazin-2(3H)-yl 4-(4-(prop-2-ynyloxy)phenyl)piperazine-1-carboxylate], the “FAAH in vitro enzyme activity, % @ 10 μM” value at FAAH was 0% @. Besides, on ABHD6 (mouse brain (mem) proteome), the “ABHD6 in vitro enzyme activity, % @ 1 μM” value was determined as 100% @.
For the compound `C#CCOc1ccc(N2CCN(C(=O)ON3C(=O)[C@H]4CN(CC5CCN(Cc6ccccc6)CC5)CCN4C3=O)CC2)cc1` [Compound 47, (R)-7-((1-benzylpiperidin-4-yl)methyl)-1,3-dioxo-hexahydroimidazo[1,5-a]pyrazin-2(3H)-yl 4-(4-(prop-2-ynyloxy)phenyl)piperazine-1-carboxylate], the “FAAH in vitro enzyme activity, % @ 10 μM” value on FAAH turned out to be 0% @. Also, the “ABHD6 in vitro enzyme activity, % @ 1 μM” value on ABHD6 (mouse brain (mem) proteome) amounted to 100% @.
The like results for `C#Cc1ccc(CCC2CCN(C(=O)ON3C(=O)[C@@H]4CN(C(=O)N5CCOCC5)CCN4C3=O)CC2)cc1` [Compound 48, (S)-7-(morpholine-4-carbonyl)-1,3-dioxo-hexahydroimidazo[1,5-a]pyrazin-2(3H)-yl 4-(4-ethynylphenethyl)piperidine-1-carboxylate] were, in that order, 75% @ and 100% @.
Take `O=C(ON1C(=O)C2CN(Cc3ccc(Oc4ccccc4)cc3)CCN2C1=O)N1CCC(c2ccccc2)CC1` (centres unmarked) [Compound 38, 1,3-dioxo-7-(4-phenoxybenzyl)hexahydroimidazo[1,5-a]pyrazin-2(3H)-yl 4-phenylpiperidine-1-carboxylate]: the “ABHD6 in vitro enzyme activity, % @ 20 μM” value on ABHD6 (20 μM, mouse brain (mem) proteome) is on record as 100% @.
`COc1ccc(N2CCN(C(=O)ON3C(=O)[C@@H]4CN(CC5CCN(Cc6ccccc6)CC5)CCN4C3=O)CC2)cc1` [Compound 42, (S)-7-((1-benzylpiperidin-4-yl)methyl)-1,3-dioxo-hexahydroimidazo[1,5-a]pyrazin-2(3H)-yl 4-(4-methoxyphenyl)piperazine-1-carboxylate]: the “FAAH in vitro enzyme activity, % @ 10 μM” value at FAAH turned out to be 0% @. Also, at ABHD6 (mouse brain (mem) proteome), the “ABHD6 in vitro enzyme activity, % @ 1 μM” value worked out at 100% @.
In the same order, the values of `COc1ccc(N2CCN(C(=O)ON3C(=O)[C@H]4CN(CC5CCN(Cc6ccccc6)CC5)CCN4C3=O)CC2)cc1` [Compound 43, (R)-7-((1-benzylpiperidin-4-yl)methyl)-1,3-dioxo-hexahydroimidazo[1,5-a]pyrazin-2(3H)-yl 4-(4-methoxyphenyl)piperazine-1-carboxylate] are 0% @ and 100% @.
Take `O=C(ON1C(=O)[C@@H]2CN(Cc3ccc(Br)cc3)CCN2C1=O)N1CCC(CCc2ccc(Cl)cc2)CC1` [Compound 40, (S)-7-(4-bromobenzyl)-1,3-dioxohexahydroimidazo[1,5-a]pyrazin-2(3H)-yl4-(4-chlorophenethyl)piperidine-1-carboxylate]: the “FAAH in vitro enzyme activity, % @ 10 μM” value at FAAH was found to be 50% @. Besides, the “ABHD6 in vitro enzyme activity, % @ 1 μM” value on ABHD6 (mouse brain (mem) proteome) was determined as 100% @.
Consider `O=C(ON1C(=O)[C@H]2CN(C(=O)N3CCOCC3)CCN2C1=O)N1CCC(CCc2ccc(Cl)cc2)CC1` [Compound 51, (R)-7-(morpholine-4-carbonyl)-1,3-dioxohexahydroimidazo[1,5-a]pyrazin-2(3H)-yl 4-(4-chloro-phenethyl)piperidine-1-carboxylate], for which the “FAAH in vitro enzyme activity, % @ 10 μM” value on FAAH turned out to be 0% @. For the same compound, at ABHD6 (mouse brain (mem) proteome), the “ABHD6 in vitro enzyme activity, % @ 1 μM” value turned out to be 100% @. Moreover, the IC50 at ABHD6 (setting [1]) is 2.5 nM.
For the compound `C#Cc1ccc(CCC2CCN(C(=O)ON3C(=O)[C@H]4CN(C(=O)N5CCOCC5)CCN4C3=O)CC2)cc1` [Compound 49, (R)-7-(morpholine-4-carbonyl)-1,3-dioxo-hexahydroimidazo[1,5-a]pyrazin-2(3H)-yl 4-(4-ethynylphenethyl)piperidine-1-carboxylate], the “FAAH in vitro enzyme activity, % @ 10 μM” value on FAAH is given as 50% @. In addition, at ABHD6 (mouse brain (mem) proteome), the “ABHD6 in vitro enzyme activity, % @ 1 μM” value is reported as 100% @.
`C#CCOc1ccc(N2CCN(C(=O)ON3C(=O)[C@@H]4CN(CC5CCN(Cc6ccccc6)CC5)CCN4C3=O)CC2)cc1` [Compound 46, (S)-7-((1-benzylpiperidin-4-yl)methyl)-1,3-dioxo-hexahydroimidazo[1,5-a]pyrazin-2(3H)-yl 4-(4-(prop-2-ynyloxy)phenyl)piperazine-1-carboxylate]: the “FAAH in vitro enzyme activity, % @ 10 μM” value on FAAH is 0% @. At ABHD6 (mouse brain (mem) proteome), the “ABHD6 in vitro enzyme activity, % @ 1 μM” value came out at 100% @.
In the case of `C#CCOc1ccc(N2CCN(C(=O)ON3C(=O)[C@@H]4CN(Cc5ccc(Oc6ccccc6)cc5)CCN4C3=O)CC2)cc1` [Compound 44, (S)-1,3-dioxo-7-(4-phenoxybenzyl)-hexahydroimidazo[1,5-a]pyrazin-2(3H)-yl 4-(4-(prop-2-ynyloxy)phenyl)piperazine-1-carboxylate], the “FAAH in vitro enzyme activity, % @ 10 μM” value on FAAH came to 0% @. Also, the “ABHD6 in vitro enzyme activity, % @ 1 μM” value at ABHD6 (mouse brain (mem) proteome) stood at 100% @.
As to `COc1ccc(N2CCN(C(=O)ON3C(=O)C4CN(CC5CCN(Cc6ccccc6)CC5)CCN4C3=O)CC2)cc1` (centres unmarked) [Compound 52, 7-((1-benzylpiperidin-4-yl)methyl)-1,3-dioxo-hexahydroimidazo[1,5-a]pyrazin-2(3H)-yl 4-(4-methoxyphenyl)piperazine-1-carboxylate], the “FAAH in vitro enzyme activity, % @ 10 μM” value on FAAH was 0% @. Besides, the “ABHD6 in vitro enzyme activity, % @ 1 μM” value at ABHD6 (mouse brain (mem) proteome) was determined as 100% @.
Consider `O=C(ON1C(=O)C2CN(C(=O)N3CCOCC3)CCN2C1=O)N1CCC(CCc2ccc(Cl)cc2)CC1` (centres unmarked) [Compound 1, 7-(morpholine-4-carbonyl)-1,3-dioxohexahydroimidazo[1,5-a]pyrazin-2(3H)-yl 4-(4-chloro-phenethyl)piperidine-1-carboxylate], for which the “selectivity for LYPLA1/2 over FAAH” value on FAAH (LYPLA versus FAAH) is listed as about 13 fold. Besides, the IC50 at FAAH (anti-target, mouse brain membrane proteome) worked out at 3150 nM; on ABHD6 (anti-target, mouse brain membrane proteome, read-out: ABHD6 IC50), 3.15 nM.
